The target of one assay is T1, Monoamine Oxidase MAO-A (Homo sapiens, UniProt P21397).
T1 construct: host or cells: Insect Hi5 cells
T1 sequence (P21397 1-527): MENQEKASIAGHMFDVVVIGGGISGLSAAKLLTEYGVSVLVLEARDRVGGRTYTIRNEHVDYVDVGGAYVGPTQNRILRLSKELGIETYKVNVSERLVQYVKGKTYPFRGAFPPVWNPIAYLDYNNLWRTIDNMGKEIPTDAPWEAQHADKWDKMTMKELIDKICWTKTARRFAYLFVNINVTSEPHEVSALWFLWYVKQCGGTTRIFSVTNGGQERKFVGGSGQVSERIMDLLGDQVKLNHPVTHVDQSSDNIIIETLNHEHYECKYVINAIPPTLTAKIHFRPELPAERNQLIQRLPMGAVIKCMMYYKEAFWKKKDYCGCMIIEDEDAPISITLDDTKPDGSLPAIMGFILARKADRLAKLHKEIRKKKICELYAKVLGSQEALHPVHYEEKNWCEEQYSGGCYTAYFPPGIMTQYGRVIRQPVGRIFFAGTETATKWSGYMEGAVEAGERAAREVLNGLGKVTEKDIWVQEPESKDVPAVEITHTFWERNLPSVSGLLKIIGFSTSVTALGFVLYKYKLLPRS
Description: Monoamine Oxidase MAO-A. It is filed as biochemical. The settings on record: for remaining activity at 10 µM: read-out: % Control Response.

The next assay addresses PRMT6 (h) (Homo sapiens, UniProt Q96LA8). Description: Epigenetic enzyme assay, Methyltransferases (MTs). Format: biochemical. The settings on record: read-out: % Inhibition of Control Values.
The next assay concerns the target T2, TRIM 33 (h) PHD domain (Homo sapiens, UniProt Q9UPN9).
T2 construct: Eurofins CEREP (France), contract laboratory
T2 sequence (Q9UPN9 887-934 limits assumed): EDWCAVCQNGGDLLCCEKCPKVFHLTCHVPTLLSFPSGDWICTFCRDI
Description: Epigenetic binding assay, PHD domain. The note with it: for inhibition at 10 µM: read-out: % Inhibition of Control Specific Binding.

The target of a further assay is T3, PHIP(2) (h) bromodomain (Homo sapiens, UniProt Q8WWQ0).
T3 construct: Bromodomain
Description: Epigenetic binding assay, Bromodomain. The settings on record: 10 μM; for inhibition at 10 µM: read-out: % Inhibition of Control Specific Binding.

The target in another assay is T4, BAP1 (h) (Homo sapiens, UniProt Q92560).
T4 sequence (Q92560 1-729): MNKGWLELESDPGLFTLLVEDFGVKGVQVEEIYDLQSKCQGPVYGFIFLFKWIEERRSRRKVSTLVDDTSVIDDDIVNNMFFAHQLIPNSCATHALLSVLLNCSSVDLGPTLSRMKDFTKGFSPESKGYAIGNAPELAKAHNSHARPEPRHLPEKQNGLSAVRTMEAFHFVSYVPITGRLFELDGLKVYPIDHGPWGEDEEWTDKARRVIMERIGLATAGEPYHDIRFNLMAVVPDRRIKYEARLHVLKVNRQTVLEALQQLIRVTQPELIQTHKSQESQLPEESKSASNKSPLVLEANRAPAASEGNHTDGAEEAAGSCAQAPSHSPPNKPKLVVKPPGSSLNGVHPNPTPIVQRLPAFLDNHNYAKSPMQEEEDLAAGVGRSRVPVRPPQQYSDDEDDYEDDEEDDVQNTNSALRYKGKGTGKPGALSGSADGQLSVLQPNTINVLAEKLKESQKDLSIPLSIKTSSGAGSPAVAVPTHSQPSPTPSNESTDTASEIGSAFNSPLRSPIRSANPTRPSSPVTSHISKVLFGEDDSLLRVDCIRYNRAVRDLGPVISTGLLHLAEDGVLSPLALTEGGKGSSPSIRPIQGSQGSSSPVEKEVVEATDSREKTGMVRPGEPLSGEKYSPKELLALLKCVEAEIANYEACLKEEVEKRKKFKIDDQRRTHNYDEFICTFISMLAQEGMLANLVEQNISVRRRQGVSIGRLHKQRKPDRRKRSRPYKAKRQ
Description: Epigenetic enzyme assay, Ubiquitin modifying enzymes. The note with it: 10 μM; read-out: % Inhibition of Control Values. Format: biochemical.

Another assay addresses T5, Deacetylase, Histone 1 (Homo sapiens, UniProt Q13547).
T5 construct: host or cells: Insect Sf9 cells
Description: Deacetylase, Histone 1 (PanLab). It is filed as biochemical. On the procedure:
The in vitro pharmacological studies were conducted by Eurofins PanLab (Taiwan) using the parameters shown in Table 13 with respect to appropriate literature references.

The next assay has as its target T6, FBXL11 (h) (Homo sapiens, UniProt Q9Y2K7).
T6 sequence (Q9Y2K7 1-1162): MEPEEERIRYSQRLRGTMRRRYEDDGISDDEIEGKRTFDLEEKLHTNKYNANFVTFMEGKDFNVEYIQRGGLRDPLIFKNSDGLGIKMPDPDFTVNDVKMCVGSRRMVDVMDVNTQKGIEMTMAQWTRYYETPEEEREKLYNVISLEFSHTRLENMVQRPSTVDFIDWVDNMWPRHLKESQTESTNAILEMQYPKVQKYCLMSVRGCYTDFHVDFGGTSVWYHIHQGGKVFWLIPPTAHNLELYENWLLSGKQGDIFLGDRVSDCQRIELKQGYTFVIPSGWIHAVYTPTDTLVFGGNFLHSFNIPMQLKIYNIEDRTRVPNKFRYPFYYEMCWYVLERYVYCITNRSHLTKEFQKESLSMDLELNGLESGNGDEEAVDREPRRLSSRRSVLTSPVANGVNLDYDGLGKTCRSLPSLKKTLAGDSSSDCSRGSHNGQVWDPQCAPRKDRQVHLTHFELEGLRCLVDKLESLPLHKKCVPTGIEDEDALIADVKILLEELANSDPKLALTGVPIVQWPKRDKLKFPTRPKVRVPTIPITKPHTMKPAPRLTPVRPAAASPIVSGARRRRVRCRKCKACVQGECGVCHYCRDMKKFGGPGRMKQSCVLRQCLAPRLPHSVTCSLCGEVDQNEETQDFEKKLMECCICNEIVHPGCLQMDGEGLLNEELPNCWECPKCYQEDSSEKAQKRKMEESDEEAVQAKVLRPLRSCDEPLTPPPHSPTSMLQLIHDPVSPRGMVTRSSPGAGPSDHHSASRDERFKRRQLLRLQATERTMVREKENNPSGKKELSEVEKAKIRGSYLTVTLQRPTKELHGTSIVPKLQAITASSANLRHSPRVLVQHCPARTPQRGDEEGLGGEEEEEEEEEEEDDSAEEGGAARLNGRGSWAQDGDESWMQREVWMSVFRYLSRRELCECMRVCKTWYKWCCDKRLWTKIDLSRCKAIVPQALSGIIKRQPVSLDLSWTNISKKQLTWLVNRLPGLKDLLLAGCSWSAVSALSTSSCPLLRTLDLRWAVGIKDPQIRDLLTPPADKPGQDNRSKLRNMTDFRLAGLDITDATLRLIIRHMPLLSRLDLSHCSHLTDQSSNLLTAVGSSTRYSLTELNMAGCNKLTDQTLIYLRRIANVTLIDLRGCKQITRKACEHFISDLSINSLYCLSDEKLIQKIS
Description: Epigenetic enzyme assay, Demethylases (KDMs). The note with it: read-out: % Inhibition of Control Values. Format: biochemical.

A further assay has as its system H3K27 me2-1. As to the kind of experiment: Cell-based detection methyl modifications. The settings on record: read-out: % Inhibition of Control Values.

Values joined by “and” are separate entries in the source; they are usually repeats but may differ in a detail not shown here. Equal values may be shown once.

Results on 3 compounds are retold here after patent publication US11331299B2, “Medicinal use of serrulatane diterpenes” (The University of Sydney, priority 2016, dated 2022).

T5 sequence (Q13547 whole entry): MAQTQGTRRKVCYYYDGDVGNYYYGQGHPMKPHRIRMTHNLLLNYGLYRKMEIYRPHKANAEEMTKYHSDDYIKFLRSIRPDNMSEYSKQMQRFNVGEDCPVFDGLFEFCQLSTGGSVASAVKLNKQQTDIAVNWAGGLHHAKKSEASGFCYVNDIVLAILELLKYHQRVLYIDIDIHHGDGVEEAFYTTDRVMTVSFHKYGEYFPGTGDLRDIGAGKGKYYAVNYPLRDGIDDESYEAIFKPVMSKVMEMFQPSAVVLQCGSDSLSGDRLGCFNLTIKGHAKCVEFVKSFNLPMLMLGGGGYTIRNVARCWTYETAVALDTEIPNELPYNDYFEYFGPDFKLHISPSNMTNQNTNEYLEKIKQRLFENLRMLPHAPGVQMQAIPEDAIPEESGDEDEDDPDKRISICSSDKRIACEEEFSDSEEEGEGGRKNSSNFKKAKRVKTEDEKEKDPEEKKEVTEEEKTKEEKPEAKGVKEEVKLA
Chain of PRMT6 (h) (Q96LA8 whole entry, the tested form may be a part): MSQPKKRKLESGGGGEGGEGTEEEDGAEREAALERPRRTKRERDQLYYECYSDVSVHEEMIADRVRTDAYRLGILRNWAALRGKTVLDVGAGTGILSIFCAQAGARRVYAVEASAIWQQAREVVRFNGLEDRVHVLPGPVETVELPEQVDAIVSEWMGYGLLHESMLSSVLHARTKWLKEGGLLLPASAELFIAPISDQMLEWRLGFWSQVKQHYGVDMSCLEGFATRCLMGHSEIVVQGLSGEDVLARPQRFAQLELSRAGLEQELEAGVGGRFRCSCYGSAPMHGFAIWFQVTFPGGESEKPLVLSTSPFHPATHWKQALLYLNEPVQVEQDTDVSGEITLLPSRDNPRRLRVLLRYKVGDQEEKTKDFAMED

Consider `CC(C)=CCC[C@@H]1COc2c(C)cc(O)c3c2[C@H]1CC[C@H]3C` [Compound 3, 5,18-epoxy-8-hydroxyserrulat-14-ene], for which, at Monoamine Oxidase MAO-A (10 μM, assay year 2015), the remaining activity at 10 µM was 27%. Further, the inhibition (usually the relative decrease from the control value, in per cent) at 10 µM on PRMT6 (h) is 34%; at TRIM 33 (h) PHD domain, -2%; at PHIP(2) (h) bromodomain it was 23%; at BAP1 (h), 24%; at FBXL11 (h), 11%; in the assay with H3K27 me2-1 it was 2%. Besides, the % control response at 10 µM at Deacetylase, Histone 1 (assay year 2015) is -26%.
For `CC(C)=CCC[C@@H]1C(O)Oc2c(C)cc(O)c3c2[C@H]1CC[C@H]3C` (stereo partly drawn) [Compound 2, 5,18-epoxyserrulat-14-en-8,18-diol], on Monoamine Oxidase MAO-A (10 μM, assay year 2015), the remaining activity at 10 µM turned out to be 34%. The inhibition at 10 µM on PRMT6 (h) is 57%; at TRIM 33 (h) PHD domain, 3%; on PHIP(2) (h) bromodomain it was 30%; at BAP1 (h) it was -9%; at FBXL11 (h), 2%; in the assay on H3K27 me2-1, 3%. The % control response at 10 µM is 23% on Deacetylase, Histone 1 (assay year 2014) and -18% at Deacetylase, Histone 1 (assay year 2015).
Take `CC(C)=CCC[C@H](CO)[C@@H]1CC[C@@H](C)c2c1cc(C)c(O)c2O` [Compound 1, 7,8,18-trihydroxyserrulat-14-ene]: the “% Control Response” value on Monoamine Oxidase MAO-A (10 μM, assay year 2015) is “potent inhibitor”. Further, the remaining activity at 10 µM on Monoamine Oxidase MAO-A (10 μM, assay year 2015) is 91%. Moreover, on Monoamine Oxidase MAO-A (concentration-response 10 to 0.01 μM), the IC50 – broadly, the midpoint of a concentration-inhibition curve – is 6.47 µM and 6.74 µM. Besides, the inhibition at 10 µM at PRMT6 (h) was 49%; at TRIM 33 (h) PHD domain, 59%; on PHIP(2) (h) bromodomain it was 61%; on BAP1 (h), 1%; at FBXL11 (h), 34%; in the assay on H3K27 me2-1, -2%. The “% Inhibition of Control Specific Binding” value is reported as “good inhibitory activity” on TRIM 33 (h) PHD domain (10 μM) and “significant inhibitory activity” on PHIP(2) (h) bromodomain. For the same compound, the % control response at 10 µM on Deacetylase, Histone 1 (assay year 2014) is 17%; on Deacetylase, Histone 1 (assay year 2015), -27%.
